Assays:
Clk1 = Clk1 (Homo sapiens, UniProt P49759); assay: Z'-LYTE kinase inhibition assay, Clk1; format: biochemical; details: for inhibition at 1 µM: read-out: Clk1 % Inh. At 1 µM; for IC50: ATP conc. equivalent to Km
Excerpt: (§1) 3. Experimental procedure for protein kinases and inhibition assays.
(§2) 3.1 The Z ́ -LYTE biochemical assay for screening and IC 50 determination for Clk1, Dyrk1A, Dyrk1B, Clk2 and Clk3 kinases.
(§3) The assay employs a fluorescence-based, coupled-enzyme format and is based on the differential sensitivity of phosphorylated and non-phosphorylated peptides to proteolytic cleavage. The peptide substrate is labeled with two fluorophores-one at each end-that make up a FRET pair. In the primary reaction, the kinase transfers the gamma-phosphate of ATP to a single tyrosine, serine, or threonine residue in a synthetic FRET-peptide. In the secondary reaction, a site-specific protease recognizes and cleaves non-phosphorylated FRET-peptides. Phosphorylation of FRET-peptides suppresses cleavage by the Development Reagent. Cleavage disrupts FRET between the donor (i.e., coumarin) and acceptor (i.e., fluorescein) fluorophores on the FRET-peptide, whereas uncleaved, phosphorylated FRET-peptides maintain FRET. A ratiometric method, which calculates the ratio (the Emission Ratio) of donor emission to acceptor emission after excitation of the donor fluorophore at 400 nm, is used to quantitate reaction progress. Both cleaved and uncleaved FRET-peptides contribute to the fluorescence signals and therefore to the Emission Ratio. The extent of phosphorylation of the FRET-peptide can be calculated from the Emission Ratio. The Emission Ratio will remain low if the FRET-peptide is phosphorylated (i.e., no kinase inhibition) and will be high if the FRET-peptide is non-phosphorylated (i.e., kinase inhibition).
(§4) The IC 50 values were determined for compounds displaying significant % inhibition in the screening step. IC 50 determination was done through testing at a range of concentrations with two […]
two independent experiments.
3.1.1 Clk1 kinase assay specific conditions:
The 2x Clk1 / Ser/Thr 09 mixture is prepared in 50 mM HEPES pH 7.5, 0.01% BRIJ-35, 10 mM MgCl 2, 1 mM EGTA. The final 10 μL kinase reaction consists of 30 - 120 ng Clk1 and 2 μM Ser/Thr 09 in 50 mM HEPES pH 7.5, 0.01% BRIJ-35, 10 mM MgCl 2, 1 mM EGTA. After the 1 h

Dyrk1A = Dyrk1A (Homo sapiens, UniProt Q13627); assay: Z'-LYTE kinase inhibition assay, Dyrk1A; format: biochemical; details: for inhibition at 1 µM: read-out: Dyrk1A % Inh. At 1 µM; for IC50: ATP conc. equivalent to Km
Excerpt: as §1, §2, §3, §4
(§5) two independent experiments. […]
3.1.2 Dyrk1A kinase assay specific conditions:
The 2x Dyrk1A / Ser/Thr 18 mixture is prepared in 50 mM HEPES pH 7.5, 0.01% BRIJ-35, 10 […]
2 µM Ser/Thr 18 in 50 mM HEPES pH 7.5, 0.01% BRIJ-35, 10 mM MgCl 2, 1 mM EGTA. […]
(§6) Development Reagent A is added. […]
(§7) MgCl2, 1 mM EGTA, 0.02% NaN3. […]

Dyrk1B = Dyrk1B (Homo sapiens, UniProt Q9Y463); assay: Z'-LYTE kinase inhibition assay, Dyrk1B; format: biochemical; details: for inhibition at 1 µM: read-out: Dyrk1B % Inh. At 1 µM; for IC50: ATP conc. equivalent to Km
Chain of Dyrk1B (Q9Y463 whole entry): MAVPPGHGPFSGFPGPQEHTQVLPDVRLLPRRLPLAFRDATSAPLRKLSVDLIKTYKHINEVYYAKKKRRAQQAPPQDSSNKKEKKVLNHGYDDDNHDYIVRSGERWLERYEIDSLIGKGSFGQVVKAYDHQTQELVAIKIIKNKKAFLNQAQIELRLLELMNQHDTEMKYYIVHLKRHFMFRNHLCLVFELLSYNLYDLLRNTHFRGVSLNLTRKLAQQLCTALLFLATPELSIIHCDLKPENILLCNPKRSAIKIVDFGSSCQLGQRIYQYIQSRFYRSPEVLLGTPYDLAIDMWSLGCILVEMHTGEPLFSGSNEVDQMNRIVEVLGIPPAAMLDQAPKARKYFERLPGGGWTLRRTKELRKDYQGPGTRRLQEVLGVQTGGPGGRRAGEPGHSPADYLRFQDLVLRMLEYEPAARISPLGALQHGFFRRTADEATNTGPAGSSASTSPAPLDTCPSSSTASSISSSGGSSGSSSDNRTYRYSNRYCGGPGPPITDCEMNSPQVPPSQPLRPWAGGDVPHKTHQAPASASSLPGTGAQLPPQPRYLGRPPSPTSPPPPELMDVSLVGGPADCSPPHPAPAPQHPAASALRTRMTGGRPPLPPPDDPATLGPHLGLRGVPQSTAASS
Excerpt: as §1, §2, §3, §4, §5
3.1.3 Dyrk1B kinase assay specific conditions:
The 2X Dyrk1B / Ser/Thr 18 mixture is prepared in 50 mM HEPES pH 6.5, 0.01% BRIJ-35, 10 […]
mM MgCl2, 1 mM EGTA, 0.02% NaN3.
as §6, §7

Chain of Clk1 (P49759 whole entry): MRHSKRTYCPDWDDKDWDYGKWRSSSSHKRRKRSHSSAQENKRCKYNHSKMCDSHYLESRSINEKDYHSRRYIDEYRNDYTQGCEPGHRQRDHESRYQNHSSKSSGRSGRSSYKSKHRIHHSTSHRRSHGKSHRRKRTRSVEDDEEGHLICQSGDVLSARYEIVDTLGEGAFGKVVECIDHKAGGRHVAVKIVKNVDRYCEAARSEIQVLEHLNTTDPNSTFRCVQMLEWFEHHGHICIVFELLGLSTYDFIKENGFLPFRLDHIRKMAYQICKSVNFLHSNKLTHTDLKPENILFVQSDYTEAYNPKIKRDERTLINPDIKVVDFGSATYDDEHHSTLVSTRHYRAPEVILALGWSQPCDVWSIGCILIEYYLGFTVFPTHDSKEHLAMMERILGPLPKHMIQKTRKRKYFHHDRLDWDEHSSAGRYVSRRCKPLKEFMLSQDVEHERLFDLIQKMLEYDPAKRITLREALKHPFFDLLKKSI

`COc1ccc(CNC(=O)c2cc3cc(O)ccc3s2)c(OC)c1` [Compound 21, N-(2,4-Dimethoxybenzyl)-5-hydroxybenzo[b]thiophene-2-carboxamide] gave a melting point of 163.3 to 164.5 °C, an inhibition at 1 µM (Clk1) of 43% and an inhibition at 1 µM (Dyrk1A) of 9%. It also gave an inhibition at 1 µM (Dyrk1B) of 17%.

Work on `Cc1ccccc1CNC(=O)c1cc2cc(O)ccc2s1` [Compound 8, 5-Hydroxy-N-(2-methylbenzyl)benzo[b]thiophene-2-carboxamide] yielded a melting point of 159.1 to 161.2 °C, an IC50 (Clk1) of 594 nM and an inhibition at 1 µM (Clk1) of 63%. The IC50 (Dyrk1A) was 853 nM, the inhibition at 1 µM (Dyrk1A) was 61% and the inhibition at 1 µM (Dyrk1B) was 48%.

`O=C(NCc1cccs1)c1cc2cc(O)ccc2s1` [Compound 27, 5-Hydroxy-N-(thiophen-2-ylmethyl)benzo[b]thiophene-2-carboxamide] showed a melting point of 139.6 to 141.4 °C, an IC50 (Clk1) of 705 nM and an inhibition at 1 µM (Clk1) of 60%. The inhibition at 1 µM (Dyrk1A) was 53%, the IC50 (Dyrk1B) was 703 nM and the inhibition at 1 µM (Dyrk1B) was 61%.

Work on `COc1cccc(CNC(=O)c2cc3cc(O)ccc3s2)c1OC` [Compound 20, N-(2,3-Dimethoxybenzyl)-5-hydroxybenzo[b]thiophene-2-carboxamide] yielded a melting point of 181.1 to 183.3 °C, an inhibition at 1 µM (Clk1) of 21% and an inhibition at 1 µM (Dyrk1A) of 14%. The inhibition at 1 µM (Dyrk1B) was 19%.

For `COc1ccc(CNC(=O)c2cc3cc(O)ccc3s2)cc1` [Compound 13, 5-Hydroxy-N-(4-methoxybenzyl)benzo[b]thiophene-2-carboxamide], the melting point was 176.5 to 178 °C, the inhibition at 1 µM (Clk1) was 17% and the inhibition at 1 µM (Dyrk1A) was 9%. For the same compound, the inhibition at 1 µM (Dyrk1B) was 16%.

Compound `Cc1ccc(CNC(=O)c2cc3cc(O)ccc3s2)cc1` [Compound 10, 5-Hydroxy-N-(4-methylbenzyl)benzo[b]thiophene-2-carboxamide] has a melting point of 186.6 to 187.6 °C, an inhibition at 1 µM (Clk1) of 30% and an inhibition at 1 µM (Dyrk1A) of 8%. For the same compound, the inhibition at 1 µM (Dyrk1B) was 0%.

`O=C(c1cc2cc(O)ccc2s1)N1Cc2ccc(Cl)cc2C1` [Compound 25, (5-Chloroisoindolin-2-yl)(5-hydroxybenzo[b]thiophen-2-yl)methanone] showed a melting point of 224.9 to 226 °C, an IC50 (Clk1) of 608 nM and an inhibition at 1 µM (Clk1) of 62%. For the same compound, the inhibition at 1 µM (Dyrk1A) was 13% and the inhibition at 1 µM (Dyrk1B) was 24%.

Work on `Cc1cccc(CNC(=O)c2cc3cc(O)ccc3s2)c1` [Compound 9, 5-Hydroxy-N-(3-methylbenzyl)benzo[b]thiophene-2-carboxamide] yielded a melting point of 176.3 to 178.4 °C, an IC50 (Clk1) of 787 nM and an inhibition at 1 µM (Clk1) of 61%. It also gave an inhibition at 1 µM (Dyrk1A) of 33% and an inhibition at 1 µM (Dyrk1B) of 40%.

`O=C(c1cc2cc(O)ccc2s1)N1CCc2ccccc2C1` [Compound 24, (3,4-Dihydroisoquinolin-2(1H)-yl)(5-hydroxybenzo[b]thiophen-2-yl)methanone] showed a melting point of 198.8 to 200.8 °C, an inhibition at 1 µM (Clk1) of 33% and an inhibition at 1 µM (Dyrk1A) of 12%. It also gave an inhibition at 1 µM (Dyrk1B) of 21%.

`O=C(NCc1cccnc1)c1cc2cc(O)ccc2s1` [Compound 26, 5-Hydroxy-N-(pyridin-3-ylmethyl)benzo[b]thiophene-2-carboxamide] gave a melting point of 198 to 200.8 °C, an inhibition at 1 µM (Clk1) of 47% and an inhibition at 1 µM (Dyrk1A) of 34%. For the same compound, the inhibition at 1 µM (Dyrk1B) was 39%.

With `O=C(NCc1cc(Cl)cc(Cl)c1)c1cc2cc(O)ccc2s1` [Compound 14, N-(3,5-Dichlorobenzyl)-5-hydroxybenzo[b]thiophene-2-carboxamide] the melting point was 189.4 to 192.1 °C, the IC50 (Clk1) was 744 nM and the inhibition at 1 µM (Clk1) was 61%. The inhibition at 1 µM (Dyrk1A) was 41% and the inhibition at 1 µM (Dyrk1B) was 12%.

With `O=C(NCc1ccc(F)cc1F)c1cc2cc(O)ccc2s1` [Compound 16, N-(2,4-Difluorobenzyl)-5-hydroxybenzo[b]thiophene-2-carboxamide] the inhibition at 1 µM (Clk1) was 50%, the inhibition at 1 µM (Dyrk1A) was 40% and the inhibition at 1 µM (Dyrk1B) was 53%.

`O=C(NCc1ccccc1)c1cc2cc(O)ccc2s1` [Compound 1, N-Benzyl-5-hydroxybenzo[b]thiophene-2-carboxamide] showed an IC50 (Clk1) of 740 nM, an inhibition at 1 µM (Clk1) of 60% and an inhibition at 1 µM (Dyrk1A) of 46%. For the same compound, the IC50 (Dyrk1B) was 833 nM and the inhibition at 1 µM (Dyrk1B) was 60%.

In the case of `O=C(NCc1ccc(F)cc1)c1cc2cc(O)ccc2s1` [Compound 7, N-(4-Fluorobenzyl)-5-hydroxybenzo[b]thiophene-2-carboxamide], the melting point is reported as 195 to 197.2 °C, the inhibition at 1 µM (Clk1) is reported as 50% and the inhibition at 1 µM (Dyrk1A) is reported as 26%. The inhibition at 1 µM (Dyrk1B) was 38%.

Work on `O=C(NCCc1ccccc1)c1cc2cc(O)ccc2s1` [Compound 29, 5-Hydroxy-N-phenethylbenzo[b]thiophene-2-carboxamide] yielded a melting point of 99.2 to 101.1 °C, an IC50 (Clk1) of 753 nM and an inhibition at 1 µM (Clk1) of 61%. It also gave an inhibition at 1 µM (Dyrk1A) of 29% and an inhibition at 1 µM (Dyrk1B) of 48%.

Work on `O=C(NCc1cccc(F)c1F)c1cc2cc(O)ccc2s1` [Compound 15, N-(2,3-Difluorobenzyl)-5-hydroxybenzo[b]thiophene-2-carboxamide] yielded a melting point of 199.7 to 201.9 °C, an IC50 (Clk1) of 779 nM and an inhibition at 1 µM (Clk1) of 61%. For the same compound, the inhibition at 1 µM (Dyrk1A) was 53%, the IC50 (Dyrk1B) was 645 nM and the inhibition at 1 µM (Dyrk1B) was 61%.

With `COc1ccc(CNC(=O)c2cc3cc(O)ccc3s2)cc1OC` [Compound 22, N-(3,4-Dimethoxybenzyl)-5-hydroxybenzo[b]thiophene-2-carboxamide] the melting point was 188.3 to 190.3 °C, the inhibition at 1 µM (Clk1) was 18% and the inhibition at 1 µM (Dyrk1A) was 8%. For the same compound, the inhibition at 1 µM (Dyrk1B) was 16%.

With `O=C(NCc1cc(C(F)(F)F)cc(C(F)(F)F)c1)c1cc2cc(O)ccc2s1` [Compound 18, N-(3,5-Bis(trifluoromethyl)benzyl)-5-hydroxybenzo[b]thiophene-2-carboxamide] the melting point was 199 to 201 °C, the inhibition at 1 µM (Clk1) was 26% and the inhibition at 1 µM (Dyrk1A) was 8%. For the same compound, the inhibition at 1 µM (Dyrk1B) was 0%.

Work on `O=C(NCCc1c[nH]c2ccccc12)c1cc2cc(O)ccc2s1` [Compound 30, N-(2-(1H-Indol-3-yl)ethyl)-5-hydroxybenzo[b]thiophene-2-carboxamide] yielded a melting point of 211.4 to 213 °C, an IC50 (Clk1) of 350 nM and an inhibition at 1 µM (Clk1) of 74%. It also gave an inhibition at 1 µM (Dyrk1A) of 20% and an inhibition at 1 µM (Dyrk1B) of 40%.

`O=C(NCc1ccccc1F)c1cc2cc(O)ccc2s1` [Compound 5, N-(2-Fluorobenzyl)-5-hydroxybenzo[b]thiophene-2-carboxamide] showed a melting point of 199.8 to 201.7 °C, an IC50 (Clk1) of 778 nM and an inhibition at 1 µM (Clk1) of 63%. The inhibition at 1 µM (Dyrk1A) was 48%, the IC50 (Dyrk1B) was 722 nM and the inhibition at 1 µM (Dyrk1B) was 62%.

In the case of `COc1cc(CNC(=O)c2cc3cc(O)ccc3s2)cc(OC)c1` [Compound 23, N-(3,5-Dimethoxybenzyl)-5-hydroxybenzo[b]thiophene-2-carboxamide], the inhibition at 1 µM (Clk1) is reported as 22%, the inhibition at 1 µM (Dyrk1A) is reported as 12% and the inhibition at 1 µM (Dyrk1B) is reported as 22%.

`O=C(NCc1ccco1)c1cc2cc(O)ccc2s1` [Compound 28, N-(Furan-2-Ylmethyl)-5-hydroxybenzo[b]thiophene-2-carboxamide] gave a melting point of 99.2 to 101.6 °C, an IC50 (Clk1) of 585 nM and an inhibition at 1 µM (Clk1) of 61%. The IC50 (Dyrk1A) was 779 nM, the inhibition at 1 µM (Dyrk1A) was 66% and the inhibition at 1 µM (Dyrk1B) was 52%.

`O=C(NCc1ccc(Cl)cc1)c1cc2cc(O)ccc2s1` [Compound 4, N-(4-Chlorobenzyl)-5-hydroxybenzo[b]thiophene-2-carboxamide] showed a melting point of 182 to 183.7 °C, an inhibition at 1 µM (Clk1) of 40% and an inhibition at 1 µM (Dyrk1A) of 7%. It also gave an inhibition at 1 µM (Dyrk1B) of 0%.

In the case of `Cc1cc(C)cc(CNC(=O)c2cc3cc(O)ccc3s2)c1` [Compound 19, N-(3,5-Dimethylbenzyl)-5-hydroxybenzo[b]thiophene-2-carboxamide], the melting point is reported as 140.2 to 141.8 °C, the inhibition at 1 µM (Clk1) is reported as 53% and the inhibition at 1 µM (Dyrk1A) is reported as 22%. For the same compound, the inhibition at 1 µM (Dyrk1B) was 0%.

With `O=C(NCc1ccccc1Cl)c1cc2cc(O)ccc2s1` [Compound 2, N-(2-Chlorobenzyl)-5-hydroxybenzo[b]thiophene-2-carboxamide] the melting point was 140.2 to 142 °C, the IC50 (Clk1) was 769 nM and the inhibition at 1 µM (Clk1) was 61%. It also gave an IC50 (Dyrk1A) of 700 nM, an inhibition at 1 µM (Dyrk1A) of 61% and an inhibition at 1 µM (Dyrk1B) of 46%.
